Test results: ChEMBL document CHEMBL1135405, “Solid-phase library synthesis, screening, and selection of tight-binding reduced peptide bond inhibitors of a recombinant Leishmania mexicana cysteine protease B” (J Med Chem, 2002)
Square brackets hold non-standard residues; d marks the D form. Peptide text beside a SMILES is read from it. Phe(4-NO2) = N[C@@H](Cc1ccc([N+](=O)[O-])cc1)C(=O)O; 2Abz = Nc1ccccc1C(=O)O

Legend:
[1] = tested on: Cysteine protease B (Leishmania mexicana); experiment: Inhibitory potency against Cysteine protease B, expressed as kinetic constant (kcat/Km)
[2] = compound: C[C@@H](O)[C@H](NC(=O)[C@H](CCCN=C(N)N)NC(=O)[C@H](Cc1ccccc1)NC(=O)[C@H](CCCN=C(N)N)NC(=O)[C@@H]1CCCN1C(=O)[C@@H](N)Cc1ccc([N+](=O)[O-])cc1)C(=O)NCC(=O)N[C@@H](CO)C(=O)N[C@@H](CCCCNC(=O)c1ccccc1N)C(=O)NCC(=O)O; experiment: Inhibitory potency against Cysteine protease B, expressed as kinetic constant (Km); settings: Leishmania mexicana

Molecule	k cat/Km [1] [mM/s]	Km [2] [µM]
C[C@@H](O)[C@H](NC(=O)[C@H](CCCN=C(N)N)NC(=O)[C@H](Cc1ccccc1)NC(=O)[C@H](CCCN=C(N)N)NC(=O)[C@@H]1CCCN1C(=O)[C@@H](N)Cc1ccc([N+](=O)[O-])cc1)C(=O)NCC(=O)N[C@@H](CO)C(=O)N[C@@H](CCCCNC(=O)c1ccccc1N)C(=O)NCC(=O)O (H-[Phe(4-NO2)]PRFRTGSK(2Abz)G-OH)	1300	–
Human rhinovirus A protease (Human rhinovirus sp.), Q4U254 (protein) AFRPCNVNTKIGNAKCCPFVCGKAVTFKDRSTCSTYNLSSSLHHILEEDKRRRQVVDVMSAIFQGPISLDAPPPPAIADLLQSVRTPRVIKYCQIIMGHPAECQVERDLNIANSIIAIIANIISIAGIIFVIYKLFCSLQGPYSGEPKPKTKVPERRVVAQGPEEEFGRSILKNNTCVITTGNGKFTGLGIHDRILIIPTHADPGREVQVNGVHTKVLDSYDLYNRDGVKLEITVIQLDRNEKFRDIRKYIPETEDDYPECNLALSANQDEPTIIKVGDVVSYGNILLSGNQTARMLKYNYPTKSGYCGGVLYKIGQILGIHVGGNGRDGFSAMLLRSYFTGQIKVNKHATECGLPDIQTIHTPSKTKLQPSVFYDVFPGSKEPAVLTDNDPRLEVNFKEA	–	1.13
